This note sets out measurements from PubChem BioAssay (NCI).

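Cells were grown in 96-well plates and exposed to each compound for 48 hours at five concentrations; endpoints were interpolated linearly between bracketing concentrations, or set to the highest concentration if not reached. At the GI50, growth is halved. Definition used: TGI = concentration required for complete inhibition of growth.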

Test systems include HS 578T breast; IGROV1 ovarian; MDA-MB-231 breast; OVCAR-5 ovarian; SF-295 CNS; SF-539 CNS; SNB-75 CNS; UO-31 renal; OVCAR-3 ovarian; OVCAR-8 ovarian.
Test in all cases: NCI tumour cell line growth inhibition, 48 h

With `CCCCCCCCCCCCCC[n+]1ccc2c(C)c3c(c(C)c2c1)c1cc(O)ccc1n3CC`, the GI50 is 0.975 µM with HS 578T breast; 0.496 µM in the test on IGROV1 ovarian; 0.602 µM in the test with MDA-MB-231 breast; 0.497 µM in the test on OVCAR-5 ovarian; 0.289 µM in the test on SF-295 CNS; 0.419 µM in the test on SF-539 CNS. In addition, the values for the GI50 in the test with SNB-75 CNS and in the test with UO-31 renal were 0.213 µM and 1.39 µM, respectively. Further, the TGI was determined as 3.67 µM in the test with HS 578T breast; 2.06 µM in the test on IGROV1 ovarian; 2.1 µM in the test on MDA-MB-231 breast; 1.85 µM with OVCAR-5 ovarian; 1.08 µM with SF-295 CNS; 1.52 µM with SF-539 CNS. Besides, the TGI in the test on SNB-75 CNS came to 1.05 µM; in the test on UO-31 renal it was 4.57 µM.

On to `O=C1/C(=C/c2cccc(Br)c2)CSC/C1=C\c1cccc(Br)c1`, for which the TGI in the test with IGROV1 ovarian is 7.11 µM; in the test with MDA-MB-231 breast, 48.9 µM; in the test on OVCAR-3 ovarian, 9.98 µM; in the test on OVCAR-5 ovarian, 15.5 µM; in the test on OVCAR-8 ovarian, 9.52 µM; in the test on SF-295 CNS it was 5.14 µM. The TGI in the test with SF-539 CNS turned out to be 13.6 µM; in the test on UO-31 renal, 3.71 µM.

Consider `CC1C2CC(C(S(=O)(=O)N3CCOCC3)/C2=N\O)C1(C)C` (configuration not stated), for which the TGI in the test with HS 578T breast, in the test with IGROV1 ovarian, in the test on MDA-MB-231 breast, with OVCAR-3 ovarian, in the test with OVCAR-8 ovarian and in the test with SF-295 CNS was above 100 µM throughout. Moreover, the TGI in the test with SF-539 CNS, with SNB-75 CNS and with UO-31 renal was above 100 µM each time.

Take `O=C(O)c1cn2c3c(cc(N4CCN(CCO)CC4)cc3c1=O)SCC2`: the TGI with IGROV1 ovarian, in the test with OVCAR-3 ovarian, in the test with OVCAR-5 ovarian, in the test with OVCAR-8 ovarian, with SF-295 CNS and in the test on SF-539 CNS was above 100 µM in each case. Moreover, the TGI in the test with SNB-75 CNS was above 66.5 µM; in the test on UO-31 renal it was above 100 µM.

Consider `O=C1CCC(=O)N1n1c(Cc2ccc(Cl)cc2)n[nH]c1=O`, for which the TGI in the test on HS 578T breast, with IGROV1 ovarian, in the test on MDA-MB-231 breast, in the test with OVCAR-3 ovarian, in the test on OVCAR-5 ovarian and in the test with OVCAR-8 ovarian was above 100 µM in each case. The TGI in the test with SF-295 CNS, with SF-539 CNS and in the test on UO-31 renal was above 100 µM each time.

For `CC(=O)OCC1OC(SC2OC(COC(C)=O)C(OC(C)=O)C(OC(C)=O)C2OC(C)=O)C(OC(C)=O)C(OC(C)=O)C1OC(C)=O` (configuration not stated), the TGI in the test on IGROV1 ovarian, with MDA-MB-231 breast, in the test with OVCAR-3 ovarian, in the test on OVCAR-5 ovarian, in the test on OVCAR-8 ovarian and with SF-295 CNS was above 100 µM each time. Further, the TGI in the test with SF-539 CNS, with SNB-75 CNS and in the test with UO-31 renal was above 100 µM throughout.

Regarding `CCCCNC(=S)Nc1nc(C(=O)NNC(=S)NC2CCCCC2)cs1`, the TGI in the test on IGROV1 ovarian, in the test on MDA-MB-231 breast, with OVCAR-3 ovarian, with OVCAR-5 ovarian, in the test with OVCAR-8 ovarian and with SF-295 CNS was above 100 µM in each case. Besides, the TGI in the test with SF-539 CNS and in the test with UO-31 renal was above 100 µM each time.

Consider `N#CCCN(CCC#N)c1ccc(/C=C2\N=C(c3ccccc3)N(NC(N)=S)C2=O)cc1`, for which the TGI with HS 578T breast, in the test on IGROV1 ovarian, in the test on MDA-MB-231 breast, in the test on OVCAR-3 ovarian, with OVCAR-5 ovarian and in the test with OVCAR-8 ovarian was above 100 µM each time. In addition, the TGI in the test on SF-295 CNS, with SF-539 CNS and with UO-31 renal was above 100 µM throughout.

As for `Cn1/c(=N\S(=O)(=O)c2ccccc2)n(S(=O)(=O)c2ccccc2)c2ccccc21`, the TGI in the test on HS 578T breast, with IGROV1 ovarian, with MDA-MB-231 breast, with OVCAR-3 ovarian, with OVCAR-5 ovarian and in the test on OVCAR-8 ovarian was above 100 µM each time. The TGI with SF-295 CNS, with SNB-75 CNS and with UO-31 renal was above 100 µM throughout.

With `CC1OC(O[C@H]2C3C=CO[C@@H](OC4OC(CO)C(O)C(O)C4O)C3[C@@]3(COC(=O)/C=C/c4ccc(O)cc4)O[C@@H]23)C(O)C(O)C1O` (some centres not stated), the TGI in the test with HS 578T breast, in the test with IGROV1 ovarian, with MDA-MB-231 breast, with OVCAR-3 ovarian, in the test on OVCAR-5 ovarian and in the test with OVCAR-8 ovarian was above 100 µM throughout. Moreover, the TGI in the test on SF-295 CNS, in the test with SNB-75 CNS and in the test with UO-31 renal was above 100 µM in each case.

Take `CC(=C(C(N)=O)C(N)=O)C1C=C(c2cccs2)CC(c2ccc(Cl)cc2)=C1O` (configuration not stated): the TGI in the test on HS 578T breast, in the test on IGROV1 ovarian, with MDA-MB-231 breast, in the test with OVCAR-3 ovarian, in the test on OVCAR-5 ovarian and with OVCAR-8 ovarian was above 100 µM each time. Besides, the TGI in the test with SF-295 CNS, with SNB-75 CNS and with UO-31 renal was above 100 µM in each case.

With `Cc1ccc(O)c(-c2cc(-c3cccc(Cl)c3)c(C#N)c(N)n2)c1`, the TGI in the test with HS 578T breast is 49.7 µM; in the test with IGROV1 ovarian it was 24.6 µM; in the test on MDA-MB-231 breast, 54.4 µM; with OVCAR-3 ovarian it was above 100 µM; in the test on OVCAR-5 ovarian, 70.4 µM; in the test on OVCAR-8 ovarian, above 100 µM. Also, the TGI with SF-295 CNS stood at 32.6 µM; with SF-539 CNS, 52 µM; in the test with UO-31 renal, 52.8 µM.

As to `CC1(CCCO)CCCCCCCCCC(C)(CCCO)C1=O` (configuration not stated), the TGI in the test with HS 578T breast, in the test with IGROV1 ovarian, in the test with MDA-MB-231 breast, in the test with OVCAR-3 ovarian, in the test with OVCAR-5 ovarian and with OVCAR-8 ovarian was above 100 µM throughout. The TGI in the test with SF-295 CNS, with SNB-75 CNS and with UO-31 renal was above 100 µM throughout.

Regarding `COc1cc(/C=C/C(=O)c2c(C)nc3ccccc3c2C)ccc1OCCCOc1cc2c(cc1OC)C(=O)N1CCC[C@H]1C=N2`, the GI50 in the test with HS 578T breast was 0.0209 µM; with MDA-MB-231 breast, 0.0306 µM; with OVCAR-3 ovarian, 0.0247 µM; in the test with OVCAR-5 ovarian it was 0.03 µM; in the test with OVCAR-8 ovarian, 0.0329 µM; with SF-539 CNS, 0.0239 µM. Also, the GI50 is 0.0226 µM in the test on SNB-75 CNS and 0.0583 µM in the test on UO-31 renal. Besides, the TGI with HS 578T breast is 0.0577 µM; in the test with MDA-MB-231 breast, 0.0985 µM; in the test with OVCAR-3 ovarian, 0.0556 µM; in the test on OVCAR-5 ovarian it was 0.0868 µM; in the test with OVCAR-8 ovarian, above 38.1 µM; in the test with SF-539 CNS, 0.0563 µM. Also, the TGI worked out at 0.114 µM in the test with SNB-75 CNS and 0.817 µM in the test with UO-31 renal.
